Activity calls are given as the source filed them. A value given as a limit tells only on which side of the number the result lay.

One assay deals with DNA topoisomerase 2-beta (Homo sapiens, UniProt Q02880).
Assay [1] has as its target T1, Breakpoint cluster region protein (Homo sapiens, UniProt P11274).
T1 sequence (P11274 whole entry): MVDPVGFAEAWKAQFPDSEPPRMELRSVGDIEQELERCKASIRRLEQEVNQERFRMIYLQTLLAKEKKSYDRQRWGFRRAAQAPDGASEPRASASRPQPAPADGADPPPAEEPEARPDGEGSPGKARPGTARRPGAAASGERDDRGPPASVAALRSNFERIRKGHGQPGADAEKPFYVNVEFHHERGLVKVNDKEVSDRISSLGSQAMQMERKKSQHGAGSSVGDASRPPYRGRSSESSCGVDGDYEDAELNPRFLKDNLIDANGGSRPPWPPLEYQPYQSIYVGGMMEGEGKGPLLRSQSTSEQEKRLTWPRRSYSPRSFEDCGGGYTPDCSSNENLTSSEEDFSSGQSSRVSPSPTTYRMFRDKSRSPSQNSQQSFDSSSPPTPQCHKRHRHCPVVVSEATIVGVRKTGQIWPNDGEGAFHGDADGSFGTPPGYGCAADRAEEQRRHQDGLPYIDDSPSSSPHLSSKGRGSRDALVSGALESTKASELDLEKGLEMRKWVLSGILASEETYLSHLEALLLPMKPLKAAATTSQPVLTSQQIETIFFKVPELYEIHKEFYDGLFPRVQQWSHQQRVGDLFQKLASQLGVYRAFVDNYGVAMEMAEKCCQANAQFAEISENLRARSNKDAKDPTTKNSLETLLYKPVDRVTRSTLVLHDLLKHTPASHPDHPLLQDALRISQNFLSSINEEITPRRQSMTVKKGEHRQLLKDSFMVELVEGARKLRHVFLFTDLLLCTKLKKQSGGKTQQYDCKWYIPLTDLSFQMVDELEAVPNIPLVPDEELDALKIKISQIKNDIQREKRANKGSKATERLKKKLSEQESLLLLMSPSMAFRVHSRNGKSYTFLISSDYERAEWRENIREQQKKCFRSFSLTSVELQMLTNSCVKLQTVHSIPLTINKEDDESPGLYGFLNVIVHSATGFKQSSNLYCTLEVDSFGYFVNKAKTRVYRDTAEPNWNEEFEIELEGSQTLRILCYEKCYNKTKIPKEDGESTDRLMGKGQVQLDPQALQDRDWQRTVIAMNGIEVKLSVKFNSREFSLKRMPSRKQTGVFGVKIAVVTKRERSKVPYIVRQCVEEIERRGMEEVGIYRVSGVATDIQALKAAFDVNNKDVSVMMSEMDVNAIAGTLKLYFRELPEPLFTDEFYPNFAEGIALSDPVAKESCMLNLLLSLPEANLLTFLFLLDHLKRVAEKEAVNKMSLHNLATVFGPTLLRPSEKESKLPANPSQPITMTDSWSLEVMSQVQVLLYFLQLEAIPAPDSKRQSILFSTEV

In assay [2] the target is Inosine-5'-monophosphate dehydrogenase 2 (Homo sapiens, UniProt P12268).
The target in assay [3] is Cyclin-dependent kinase 7 (Homo sapiens, UniProt P50613).
The target of assay [4] is Ras-related protein Rab-6A (Homo sapiens, UniProt P20340).
The target in assay [5] is U5 small nuclear ribonucleoprotein 200 kDa helicase (Homo sapiens, UniProt O75643).
Assay [6] addresses T2, Serine/threonine-protein kinase Nek9 (Homo sapiens, UniProt Q8TD19).
T2 sequence (Q8TD19 whole entry): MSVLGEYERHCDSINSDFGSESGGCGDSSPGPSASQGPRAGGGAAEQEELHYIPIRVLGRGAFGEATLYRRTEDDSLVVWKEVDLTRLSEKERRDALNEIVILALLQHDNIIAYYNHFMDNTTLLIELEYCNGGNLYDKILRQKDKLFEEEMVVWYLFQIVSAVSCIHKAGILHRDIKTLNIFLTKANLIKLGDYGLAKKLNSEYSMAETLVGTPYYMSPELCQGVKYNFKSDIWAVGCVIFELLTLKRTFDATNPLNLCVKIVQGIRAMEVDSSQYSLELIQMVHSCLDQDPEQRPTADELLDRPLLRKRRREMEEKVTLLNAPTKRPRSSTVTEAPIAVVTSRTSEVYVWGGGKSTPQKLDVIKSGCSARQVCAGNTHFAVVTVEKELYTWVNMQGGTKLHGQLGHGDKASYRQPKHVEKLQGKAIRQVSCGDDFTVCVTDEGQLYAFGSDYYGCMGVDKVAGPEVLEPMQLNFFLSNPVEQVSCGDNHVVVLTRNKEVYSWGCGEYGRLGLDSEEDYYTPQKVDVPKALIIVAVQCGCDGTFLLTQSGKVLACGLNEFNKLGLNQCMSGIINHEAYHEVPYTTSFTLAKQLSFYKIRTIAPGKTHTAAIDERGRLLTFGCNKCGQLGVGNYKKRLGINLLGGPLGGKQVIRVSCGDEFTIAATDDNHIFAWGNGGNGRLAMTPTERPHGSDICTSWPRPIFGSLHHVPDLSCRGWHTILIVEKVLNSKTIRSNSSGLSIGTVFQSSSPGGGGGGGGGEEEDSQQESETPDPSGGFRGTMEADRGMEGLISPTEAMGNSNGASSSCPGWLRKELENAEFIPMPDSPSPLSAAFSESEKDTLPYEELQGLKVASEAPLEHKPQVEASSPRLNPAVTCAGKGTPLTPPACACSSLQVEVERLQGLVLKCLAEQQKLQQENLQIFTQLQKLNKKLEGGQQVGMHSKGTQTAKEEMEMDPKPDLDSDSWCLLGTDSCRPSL

Assay [7] has as its target cAMP-dependent protein kinase catalytic subunit beta (Homo sapiens, UniProt P22694).
The target in assay [8] is Protein kinase C alpha type (Homo sapiens, UniProt P17252).
Assay [9] concerns the target T3, Dual specificity mitogen-activated protein kinase kinase 3 (Homo sapiens, UniProt P46734).
T3 sequence (P46734 whole entry): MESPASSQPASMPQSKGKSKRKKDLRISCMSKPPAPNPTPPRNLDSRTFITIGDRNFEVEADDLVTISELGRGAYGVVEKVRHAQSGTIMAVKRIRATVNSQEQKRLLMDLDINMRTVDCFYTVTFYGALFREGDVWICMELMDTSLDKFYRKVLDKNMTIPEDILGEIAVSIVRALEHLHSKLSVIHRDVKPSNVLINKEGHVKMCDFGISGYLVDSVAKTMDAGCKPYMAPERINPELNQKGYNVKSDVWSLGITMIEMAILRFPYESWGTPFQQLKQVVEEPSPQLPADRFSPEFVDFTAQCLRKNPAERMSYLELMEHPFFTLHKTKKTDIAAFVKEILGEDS

Assay [10] deals with Mitogen-activated protein kinase 11 (Homo sapiens, UniProt Q15759).
Note: in the data inactive means no Kd found up to 30 µM.

Sequence of Ras-related protein Rab-6A (P20340 whole entry): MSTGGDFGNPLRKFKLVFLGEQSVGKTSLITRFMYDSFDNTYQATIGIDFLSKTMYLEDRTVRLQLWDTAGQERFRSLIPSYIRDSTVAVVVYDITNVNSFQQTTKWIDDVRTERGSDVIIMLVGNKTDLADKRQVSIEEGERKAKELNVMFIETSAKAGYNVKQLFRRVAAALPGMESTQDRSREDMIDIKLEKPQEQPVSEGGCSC
Sequence of DNA topoisomerase 2-beta (Q02880 whole entry): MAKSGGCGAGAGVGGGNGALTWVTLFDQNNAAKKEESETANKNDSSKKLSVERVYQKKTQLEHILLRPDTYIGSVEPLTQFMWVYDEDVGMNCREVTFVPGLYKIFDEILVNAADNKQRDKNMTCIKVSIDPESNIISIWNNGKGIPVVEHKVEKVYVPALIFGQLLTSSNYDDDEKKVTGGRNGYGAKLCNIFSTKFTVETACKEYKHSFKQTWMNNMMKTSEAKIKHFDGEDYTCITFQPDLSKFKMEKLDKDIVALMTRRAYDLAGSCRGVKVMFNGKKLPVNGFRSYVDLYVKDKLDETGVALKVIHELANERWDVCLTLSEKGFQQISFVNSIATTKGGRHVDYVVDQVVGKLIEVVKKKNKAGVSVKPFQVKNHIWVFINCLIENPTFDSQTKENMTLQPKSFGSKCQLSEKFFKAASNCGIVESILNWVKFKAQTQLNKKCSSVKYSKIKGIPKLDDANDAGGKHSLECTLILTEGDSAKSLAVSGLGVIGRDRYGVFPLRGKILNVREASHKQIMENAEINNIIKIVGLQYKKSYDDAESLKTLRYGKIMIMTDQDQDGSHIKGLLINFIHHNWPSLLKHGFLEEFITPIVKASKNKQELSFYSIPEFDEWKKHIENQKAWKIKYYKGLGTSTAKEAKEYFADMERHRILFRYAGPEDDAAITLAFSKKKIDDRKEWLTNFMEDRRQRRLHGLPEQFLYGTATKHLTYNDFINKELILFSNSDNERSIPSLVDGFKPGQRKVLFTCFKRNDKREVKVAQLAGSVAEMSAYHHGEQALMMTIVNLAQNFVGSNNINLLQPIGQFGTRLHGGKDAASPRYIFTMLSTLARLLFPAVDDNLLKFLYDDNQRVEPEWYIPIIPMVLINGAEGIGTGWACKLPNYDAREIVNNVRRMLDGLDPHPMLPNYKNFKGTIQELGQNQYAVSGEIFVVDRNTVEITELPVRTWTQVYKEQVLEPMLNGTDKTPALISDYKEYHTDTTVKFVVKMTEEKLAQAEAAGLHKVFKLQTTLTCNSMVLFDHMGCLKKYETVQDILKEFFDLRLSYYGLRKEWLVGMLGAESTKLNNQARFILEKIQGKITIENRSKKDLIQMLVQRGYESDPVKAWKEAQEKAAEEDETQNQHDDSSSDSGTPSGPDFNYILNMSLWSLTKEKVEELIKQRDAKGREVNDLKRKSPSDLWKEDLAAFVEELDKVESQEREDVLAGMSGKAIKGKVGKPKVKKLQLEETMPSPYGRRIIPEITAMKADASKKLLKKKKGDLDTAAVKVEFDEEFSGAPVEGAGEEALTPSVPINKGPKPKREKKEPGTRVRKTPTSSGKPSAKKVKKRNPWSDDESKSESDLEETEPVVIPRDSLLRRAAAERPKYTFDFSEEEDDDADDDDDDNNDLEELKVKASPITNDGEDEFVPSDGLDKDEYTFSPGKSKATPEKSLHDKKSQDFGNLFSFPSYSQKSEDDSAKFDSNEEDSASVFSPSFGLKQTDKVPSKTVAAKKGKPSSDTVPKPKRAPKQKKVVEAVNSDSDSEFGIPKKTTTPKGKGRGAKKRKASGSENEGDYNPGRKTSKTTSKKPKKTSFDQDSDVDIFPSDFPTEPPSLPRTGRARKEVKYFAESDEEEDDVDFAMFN
Sequence of Cyclin-dependent kinase 7 (P50613 whole entry): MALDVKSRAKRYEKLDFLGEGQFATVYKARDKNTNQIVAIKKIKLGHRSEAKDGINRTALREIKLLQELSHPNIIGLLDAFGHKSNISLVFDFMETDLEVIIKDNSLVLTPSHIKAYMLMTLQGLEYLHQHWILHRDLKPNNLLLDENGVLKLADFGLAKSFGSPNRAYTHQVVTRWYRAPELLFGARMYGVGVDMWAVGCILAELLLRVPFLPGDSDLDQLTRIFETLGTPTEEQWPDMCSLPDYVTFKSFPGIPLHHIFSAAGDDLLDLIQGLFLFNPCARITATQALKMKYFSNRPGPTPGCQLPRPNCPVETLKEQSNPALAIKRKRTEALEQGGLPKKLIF
Sequence of Mitogen-activated protein kinase 11 (Q15759 whole entry): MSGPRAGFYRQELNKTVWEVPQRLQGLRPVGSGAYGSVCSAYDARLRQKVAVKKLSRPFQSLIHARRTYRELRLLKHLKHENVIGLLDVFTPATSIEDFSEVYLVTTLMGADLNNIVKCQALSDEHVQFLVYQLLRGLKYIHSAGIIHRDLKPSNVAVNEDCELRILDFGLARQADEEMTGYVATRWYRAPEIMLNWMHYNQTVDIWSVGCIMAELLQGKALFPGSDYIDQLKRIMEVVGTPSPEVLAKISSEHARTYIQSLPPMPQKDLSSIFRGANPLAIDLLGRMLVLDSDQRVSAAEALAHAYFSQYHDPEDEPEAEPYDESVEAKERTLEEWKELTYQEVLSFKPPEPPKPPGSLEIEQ
Sequence of U5 small nuclear ribonucleoprotein 200 kDa helicase (O75643 whole entry): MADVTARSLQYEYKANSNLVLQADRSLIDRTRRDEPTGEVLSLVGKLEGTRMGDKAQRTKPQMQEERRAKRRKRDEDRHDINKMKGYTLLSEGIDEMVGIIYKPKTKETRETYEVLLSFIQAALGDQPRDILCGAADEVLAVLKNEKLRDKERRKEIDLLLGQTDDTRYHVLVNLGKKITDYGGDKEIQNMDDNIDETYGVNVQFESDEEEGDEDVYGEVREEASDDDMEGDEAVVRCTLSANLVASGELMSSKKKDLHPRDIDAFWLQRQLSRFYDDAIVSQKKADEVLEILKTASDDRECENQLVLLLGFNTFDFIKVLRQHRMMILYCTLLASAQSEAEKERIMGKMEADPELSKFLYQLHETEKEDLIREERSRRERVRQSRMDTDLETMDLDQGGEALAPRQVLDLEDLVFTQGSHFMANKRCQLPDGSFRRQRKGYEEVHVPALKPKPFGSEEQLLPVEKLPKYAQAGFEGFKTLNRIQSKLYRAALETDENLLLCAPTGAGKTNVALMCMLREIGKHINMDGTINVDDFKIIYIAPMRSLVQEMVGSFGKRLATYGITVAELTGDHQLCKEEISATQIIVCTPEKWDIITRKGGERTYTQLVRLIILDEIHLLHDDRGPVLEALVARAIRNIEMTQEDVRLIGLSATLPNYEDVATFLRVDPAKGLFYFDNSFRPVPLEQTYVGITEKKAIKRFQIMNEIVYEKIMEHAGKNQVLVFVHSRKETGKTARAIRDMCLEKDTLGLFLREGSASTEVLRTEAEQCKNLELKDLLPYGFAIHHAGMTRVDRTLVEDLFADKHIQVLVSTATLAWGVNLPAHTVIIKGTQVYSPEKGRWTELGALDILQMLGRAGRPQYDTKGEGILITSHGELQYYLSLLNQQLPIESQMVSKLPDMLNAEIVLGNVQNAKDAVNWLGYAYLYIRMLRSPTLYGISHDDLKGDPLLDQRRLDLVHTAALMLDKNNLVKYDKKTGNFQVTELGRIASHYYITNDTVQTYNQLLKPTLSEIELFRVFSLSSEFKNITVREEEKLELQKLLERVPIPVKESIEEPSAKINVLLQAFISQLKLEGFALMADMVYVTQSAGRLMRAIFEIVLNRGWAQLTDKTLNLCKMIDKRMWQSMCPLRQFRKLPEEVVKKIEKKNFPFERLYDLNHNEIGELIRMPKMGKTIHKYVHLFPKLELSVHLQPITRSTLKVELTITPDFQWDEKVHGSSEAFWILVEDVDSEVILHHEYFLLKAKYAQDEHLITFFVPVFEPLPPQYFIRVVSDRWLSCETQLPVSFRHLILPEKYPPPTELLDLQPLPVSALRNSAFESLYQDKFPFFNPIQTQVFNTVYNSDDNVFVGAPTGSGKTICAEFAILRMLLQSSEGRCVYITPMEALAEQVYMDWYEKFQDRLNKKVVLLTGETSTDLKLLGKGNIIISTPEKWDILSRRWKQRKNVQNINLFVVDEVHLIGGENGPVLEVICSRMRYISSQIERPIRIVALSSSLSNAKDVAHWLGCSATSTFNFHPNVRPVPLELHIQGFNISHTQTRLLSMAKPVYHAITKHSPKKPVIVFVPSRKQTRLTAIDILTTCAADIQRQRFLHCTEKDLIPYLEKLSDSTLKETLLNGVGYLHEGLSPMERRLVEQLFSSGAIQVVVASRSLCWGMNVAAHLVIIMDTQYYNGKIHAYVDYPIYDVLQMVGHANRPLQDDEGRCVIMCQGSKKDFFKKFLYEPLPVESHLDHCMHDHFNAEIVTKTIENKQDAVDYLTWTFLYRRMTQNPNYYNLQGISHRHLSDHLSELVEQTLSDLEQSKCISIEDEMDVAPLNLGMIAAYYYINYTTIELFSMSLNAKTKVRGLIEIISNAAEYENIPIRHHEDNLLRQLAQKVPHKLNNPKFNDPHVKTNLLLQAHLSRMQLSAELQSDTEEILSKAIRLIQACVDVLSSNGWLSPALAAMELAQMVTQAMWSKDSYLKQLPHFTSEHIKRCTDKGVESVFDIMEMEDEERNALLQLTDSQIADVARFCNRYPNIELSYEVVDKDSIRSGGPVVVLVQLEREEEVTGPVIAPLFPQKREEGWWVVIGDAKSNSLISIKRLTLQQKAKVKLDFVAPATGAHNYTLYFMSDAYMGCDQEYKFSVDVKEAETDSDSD

As for `O=C(Nc1cc(C(F)(F)F)cc(C(F)(F)F)c1)c1cc(Cl)ccc1O` [IMD-0354], the Kd (on DNA topoisomerase 2-beta; in assay [1]; in assay [2]; in [3]; in assay [4]; in assay [5]) was > 30 µM (inactive) throughout. Further, the Kd in assay [6], in assay [7], in [8], in assay [9] and in assay [10] was > 30 µM (inactive) each time.

Consider `CNC(=O)c1cccc2cc(Oc3ccnc4cc(OCC5(N)CC5)c(OC)cc34)ccc12` [LUCITANIB], for which the Kd (on DNA topoisomerase 2-beta; in [1]; in assay [2]; in assay [3]; in assay [4]; in assay [5]) was > 30 µM (inactive) throughout. Moreover, the Kd in assay [6], in assay [7], in assay [8], in assay [9] and in [10] was > 30 µM (inactive) throughout.

Regarding `CN(C[C@@H]1COCCO1)S(=O)(=O)Nc1ccc2ccc3ncc(-c4cnn(C)c4)cc3c(=O)c2c1` [MK-2461], the Kd (on DNA topoisomerase 2-beta; in assay [1]; in [2]; in [3]; in assay [4]; in assay [5]) was > 30 µM (inactive) in each case. Besides, the Kd in assay [6], in [7], in [8], in assay [9] and in [10] was > 30 µM (inactive) throughout.

As to `Cn1cc(-c2cnc3ccc4ccc(CS(=O)(=O)NCc5ccccn5)cc4c(=O)c3c2)cn1` [MK-8033], the Kd (at DNA topoisomerase 2-beta; in assay [1]; in assay [2]; in assay [3]; in [4]; in [5]) was > 30 µM (inactive) each time. Moreover, the Kd in assay [6], in assay [7], in assay [8], in [9] and in assay [10] was > 30 µM (inactive) throughout.

Turning to `COc1ncc(-c2ccc3nccc(-c4ccnnc4)c3c2)cc1NS(=O)(=O)c1ccc(F)cc1F` [OMIPALISIB], the Kd (on DNA topoisomerase 2-beta; in assay [1]; in assay [2]; in [3]; in [4]; in assay [5]) was > 30 µM (inactive) in each case. For the same compound, the Kd in assay [6], in [7], in [8], in [9] and in assay [10] was > 30 µM (inactive) each time.

Consider `CCOc1cc2ncc(C#N)c(Nc3ccc(F)c(Cl)c3)c2cc1NC(=O)/C=C/CN(C)C` [PELITINIB], for which the Kd at DNA topoisomerase 2-beta is > 30 µM (inactive); in assay [1], 1.19 µM (active); in [2], > 30 µM (inactive); in assay [3], > 30 µM (inactive); in assay [4], > 30 µM (inactive); in assay [5], > 30 µM (inactive). For the same compound, the Kd in assay [6], in [7], in assay [8], in assay [9] and in [10] was > 30 µM (inactive) throughout.

Turning to `CCCCCCCCCCCCCCCCCCOP(=O)([O-])OC1CC[N+](C)(C)CC1` [PERIFOSINE], the Kd (at DNA topoisomerase 2-beta; in [1]; in assay [2]; in assay [3]; in [4]; in [5]) was > 30 µM (inactive) in each case. The Kd in assay [6], in [7], in assay [8], in assay [9] and in assay [10] was > 30 µM (inactive) each time.

Regarding `Cc1cnc(NC(=O)Nc2cc(Br)c(C)cc2OC[C@@H]2CNCCO2)cn1` [RABUSERTIB], the Kd (on DNA topoisomerase 2-beta; in [1]; in assay [2]; in assay [3]; in [4]; in assay [5]) was > 30 µM (inactive) throughout. In addition, the Kd in assay [6], in [7], in [8], in [9] and in assay [10] was > 30 µM (inactive) throughout.

As to `CO[C@H]1C[C@@H]2CC[C@@H](C)[C@@](O)(O2)C(=O)C(=O)N2CCCC[C@H]2C(=O)O[C@H]([C@H](C)C[C@@H]2CC[C@@H](OP(C)(C)=O)[C@H](OC)C2)CC(=O)[C@H](C)/C=C(\C)[C@@H](O)[C@@H](OC)C(=O)[C@H](C)C[C@H](C)/C=C/C=C/C=C/1C` [RIDAFOROLIMUS], the Kd (at DNA topoisomerase 2-beta; in assay [1]; in [2]; in assay [3]; in assay [4]; in assay [5]) was > 30 µM (inactive) in each case. Moreover, the Kd in [6], in [7], in assay [8], in assay [9] and in assay [10] was > 30 µM (inactive) each time.

The values are drawn from ChEMBL document CHEMBL3991601, “The target landscape of clinical kinase drugs” (Science, 2017).
